Read-outs that look alike come from different tables or passages of the source. Blank lines part the entries; values can stand above or below the compound they belong to.
What was measured:
Br2 β-glucosidase [1] = assay: glucose release, glucose oxidase/ABTS assay, Michaelis-Menten fit; type: biochemical, uncultured bacterium; settings: 0.1 M sodium phosphate, pH 6.5, 40 °C, 10 min
Br2 β-glucosidase [2] = settings: 0.1 M sodium phosphate, pH 6.5, 40 °C, 10 min
Br2 β-glucosidase [3] = settings: read-out: pNP-Glc; 0.1 M sodium phosphate, pH 6.5, 40 °C, 10 min
Br2 β-glucosidase [4] = assay: p-nitrophenol release, absorbance at […] nm, Michaelis-Menten fit; type: biochemical, uncultured bacterium; settings: read-out: pNP-Glc; 0.1 M sodium phosphate, pH 6.5, 40 °C, 10 min
Br2 β-glucosidase [5] = settings: read-out: pNP-Glc; 0.1 M sodium phosphate, pH 6.5, 40 °C, 10 min; cited from earlier work
[6] = molecular target: Br2 β-glucosidase (glycoside hydrolase family 1), wild type (bovine rumen metagenome (microbe not identified)); assay: SEC

Compound: OC[C@H]1O[C@@H](O[C@H]2[C@H](O)[C@@H](O)[C@H](O[C@H]3[C@H](O)[C@@H](O)[C@H](O[C@H]4[C@H](O)[C@@H](O)C(O)O[C@@H]4CO)O[C@@H]3CO)O[C@@H]2CO)[C@H](O)[C@@H](O)[C@@H]1O (stereo partly shown) [Cellotetraose]
Km (Br2 β-glucosidase [1]; read-out: Gentiobiose): 3.87 ± 0.16 mM | Km (Br2 β-glucosidase [2]; read-out: Gentiobiose): 1.83 ± 0.09 mM

Compound: OC[C@H]1O[C@@H](O[C@H]2[C@H](O)[C@@H](CO)OC(O)[C@@H]2O)[C@H](O)[C@@H](O)[C@@H]1O (stereo partly shown) [Laminaribiose]
Km (Br2 β-glucosidase [3]): 11.7 ± 4.2 mM | Km (Br2 β-glucosidase [1]; read-out: pNP-Glc): 1.29 ± 0.08 mM

Compound: O=[N+]([O-])c1ccc(O[C@@H]2O[C@H](CO)[C@@H](O)[C@H](O)[C@H]2O)cc1 [pNP-Glc, p-nitrophenyl β-D-glucopyranoside]
Km (Br2 β-glucosidase [4]): 0.55 ± 0.04 mM

Compound: OC[C@H]1O[C@@H](O[C@@H]2[C@@H](O)[C@H](O[C@H]3[C@H](O)[C@@H](CO)OC(O)[C@@H]3O)O[C@H](CO)[C@H]2O)[C@H](O)[C@@H](O)[C@@H]1O (stereo partly shown) [Laminaritriose]
Km (Br2 β-glucosidase [1]; read-out: Sophorose): 0.9 ± 0.09 mM

Compound: OC[C@H]1O[C@@H](O[C@H]2C(O)O[C@H](CO)[C@@H](O)[C@@H]2O)[C@H](O)[C@@H](O)[C@@H]1O (stereo partly shown) [Sophorose]
Km (Br2 β-glucosidase [1]; read-out: Sophorose): 2.68 ± 0.16 mM

Compound: OC[C@H]1O[C@@H](O[C@@H]2[C@@H](O)[C@H](O[C@@H]3[C@@H](O)[C@H](O[C@H]4[C@H](O)[C@@H](CO)OC(O)[C@@H]4O)O[C@H](CO)[C@H]3O)O[C@H](CO)[C@H]2O)[C@H](O)[C@@H](O)[C@@H]1O (stereo partly shown) [Laminaritetraose]
Km (Br2 β-glucosidase [1]; read-out: Gentiobiose): 2.56 ± 0.41 mM

Compound: OC[C@H]1O[C@@H](O[C@H]2[C@H](O)[C@@H](O)C(O)O[C@@H]2CO)[C@H](O)[C@@H](O)[C@@H]1O (stereo partly shown) [Cellobiose]
Km (Br2 β-glucosidase [5]): 24.3 ± 9.8 mM

Compound: OC[C@H]1O[C@@H](OC[C@H]2OC(O)[C@H](O)[C@@H](O)[C@@H]2O)[C@H](O)[C@@H](O)[C@@H]1O (stereo partly shown) [Gentiobiose]
Km (Br2 β-glucosidase [1]; read-out: Gentiobiose): 35.8 ± 10.9 mM

Compound: OC[C@H]1O[C@@H](O[C@H]2[C@H](O)[C@@H](O)[C@H](O[C@H]3[C@H](O)[C@@H](O)C(O)O[C@@H]3CO)O[C@@H]2CO)[C@H](O)[C@@H](O)[C@@H]1O (stereo partly shown) [Cellotriose]
Km (Br2 β-glucosidase [1]; read-out: Sophorose): 6.73 ± 0.32 mM | Km (Br2 β-glucosidase [2]; read-out: Sophorose): 3.57 ± 0.33 mM

stoichiometry N [6]: 4
Compound: Br2 β-glucosidase (glycoside hydrolase family 1), wild type (enzyme)
